One data set addresses T1, human FASN (Homo sapiens, UniProt P49327).
T1 construct: endogenous in cells; host or cells: BT474 cells; endogenous enzyme purified by ammonium sulfate cuts and Sephacryl S-300 gel filtration, about 85% pure
The data set is described as follows: FASN activity assay, 2-[14C] malonyl CoA incorporation into lipids by purified enzyme. Type of data set: biochemical. As for the experimental part: Human FASN activity was measured by monitoring the incorporation of 2-[^14C] malonyl CoA into fatty acids using liquid scintillation counting by a method similar to the one described by Richardson et al (Richardson and Smith, 2007). FASN (10 μg/ml of PBS containing 1 mM DTT and 1 mM EDTA) was pre-incubated with different concentrations of HS-106 (final DMSO concentration 1%) at 37° C. for 30 minutes, then substrates were added (20 μM acetyl CoA and 200 μM NADPH) in a total reaction volume of 100 μl. The reaction was initiated by adding 10 μl of 50 μM malonyl CoA spiked with 0.05 μCi of 2-[^14C] malonyl CoA. After incubation for 30 minutes at 37° C., lipids were extracted 3 times with 150 μl (2:1, v/v) chloroform:methanol. Then, to the pooled organic phases, 1 ml of toluene containing 25 g/L Butyl-PBD was added and radioactivity was measured by liquid scintillation counting.
Confluent BT474 cells grown in high glucose DMEM with 10% FBS, were scraped and washed two times with ice cold PBS. […]
Human FASN activity was measured by monitoring the incorporation of 2-[^14C] […] Then, to the pooled organic phase, 1 ml of Toluene containing […] Butyl PBD was added and radioactivity was measured by scintillation counting. […]

A short description of the next data set: in vivo. As to conditions: MMTV-Neu, mouse, 15 mg/kg, n=3.
How the values of data set [1] were obtained:
To test if HS-106 is toxic to mice, two animal studies were initiated. In an acute toxicity study, mice received 80, 20, or 5 mg/kg HS-106 IP on day 1 and 3, and blood was collected on day 4.
In an acute toxicity study, FVB/J mice received 10, 40, or 160 pmol/kg HS-106 via intraperitoneal injection (IP) on days 1 and 3, and blood was collected on day 4. […] To test for the long term effects of HS-106, mice received biweekly IP injections of 10, 20, or 30 pmol/kg HS-106 for eight weeks. […] Next, we carried out pharmacokinetic (PK) studies to determine the uptake and bio-distribution of HS-106 in MMTV-Neu mice by LC-MS (FIG. 17).
Female FVB/J mice aged to 10-12 weeks (Jackson Labs, Maine) were intraperitonealy injected with HS-106 at the described doses twice weekly. Mice were monitored for signs of toxicity by standard Mouse Phase 1 Unit (MP1U; https://www.med.unc.edu/mousephase1) protocols and approved by UNC—CH IACUC. Prior to end of the study 150 μl of whole blood was drawn via submandibular bleed and used to determine hematology values, liver, and kidney functions. To determine the long term effects of HS-106 on mice weight, female FVB/J mice aged 12-16 weeks were treated with the indicated concentrations of HS-106 twice weekly by intraperitoneal injection for 60 days. Mice body mass was assessed weekly and were observed every day for signs of toxicity such as labored breathing and hunched posture.
Female FVB/J mice aged to 10-12 weeks (Jackson Labs, Maine) were intraperitonealy (IP) injected twice weekly with HS-106 at the described doses. Mice were monitored for signs of toxicity by standard Mouse Phase 1 Unit (M1P1U; https://www.med.unc.edu/mousephase1) protocols and approved by UNC—CH IACUC. Prior to end of the study 150 μl of whole blood was drawn via submandibular bleed and used to determine hematology values, liver, and kidney functions by HemaTrue Hematology Analyzer (HESKA, Loveland, Colo., USA) and VITROS® 350 Chemistry System (J&J, New Brunswick, N.J.) according to manufacturer protocols. To determine the long term effects of HS-106 on mice weight, female FVB/J mice aged 12-16 weeks were treated with the indicated concentrations of HS-106 twice weekly by IP injection for 60 days. Mice body mass was assessed weekly, and mice were observed daily for signs of toxicity (e.g. labored breathing and hunched posture).

These results are taken from patent publication US11679111B2, “Fatty acid synthase inhibitors” (priority 2016, dated 2023).

Like-named read-outs stand apart in the source and are kept apart here.

T1 sequence (P49327 whole entry): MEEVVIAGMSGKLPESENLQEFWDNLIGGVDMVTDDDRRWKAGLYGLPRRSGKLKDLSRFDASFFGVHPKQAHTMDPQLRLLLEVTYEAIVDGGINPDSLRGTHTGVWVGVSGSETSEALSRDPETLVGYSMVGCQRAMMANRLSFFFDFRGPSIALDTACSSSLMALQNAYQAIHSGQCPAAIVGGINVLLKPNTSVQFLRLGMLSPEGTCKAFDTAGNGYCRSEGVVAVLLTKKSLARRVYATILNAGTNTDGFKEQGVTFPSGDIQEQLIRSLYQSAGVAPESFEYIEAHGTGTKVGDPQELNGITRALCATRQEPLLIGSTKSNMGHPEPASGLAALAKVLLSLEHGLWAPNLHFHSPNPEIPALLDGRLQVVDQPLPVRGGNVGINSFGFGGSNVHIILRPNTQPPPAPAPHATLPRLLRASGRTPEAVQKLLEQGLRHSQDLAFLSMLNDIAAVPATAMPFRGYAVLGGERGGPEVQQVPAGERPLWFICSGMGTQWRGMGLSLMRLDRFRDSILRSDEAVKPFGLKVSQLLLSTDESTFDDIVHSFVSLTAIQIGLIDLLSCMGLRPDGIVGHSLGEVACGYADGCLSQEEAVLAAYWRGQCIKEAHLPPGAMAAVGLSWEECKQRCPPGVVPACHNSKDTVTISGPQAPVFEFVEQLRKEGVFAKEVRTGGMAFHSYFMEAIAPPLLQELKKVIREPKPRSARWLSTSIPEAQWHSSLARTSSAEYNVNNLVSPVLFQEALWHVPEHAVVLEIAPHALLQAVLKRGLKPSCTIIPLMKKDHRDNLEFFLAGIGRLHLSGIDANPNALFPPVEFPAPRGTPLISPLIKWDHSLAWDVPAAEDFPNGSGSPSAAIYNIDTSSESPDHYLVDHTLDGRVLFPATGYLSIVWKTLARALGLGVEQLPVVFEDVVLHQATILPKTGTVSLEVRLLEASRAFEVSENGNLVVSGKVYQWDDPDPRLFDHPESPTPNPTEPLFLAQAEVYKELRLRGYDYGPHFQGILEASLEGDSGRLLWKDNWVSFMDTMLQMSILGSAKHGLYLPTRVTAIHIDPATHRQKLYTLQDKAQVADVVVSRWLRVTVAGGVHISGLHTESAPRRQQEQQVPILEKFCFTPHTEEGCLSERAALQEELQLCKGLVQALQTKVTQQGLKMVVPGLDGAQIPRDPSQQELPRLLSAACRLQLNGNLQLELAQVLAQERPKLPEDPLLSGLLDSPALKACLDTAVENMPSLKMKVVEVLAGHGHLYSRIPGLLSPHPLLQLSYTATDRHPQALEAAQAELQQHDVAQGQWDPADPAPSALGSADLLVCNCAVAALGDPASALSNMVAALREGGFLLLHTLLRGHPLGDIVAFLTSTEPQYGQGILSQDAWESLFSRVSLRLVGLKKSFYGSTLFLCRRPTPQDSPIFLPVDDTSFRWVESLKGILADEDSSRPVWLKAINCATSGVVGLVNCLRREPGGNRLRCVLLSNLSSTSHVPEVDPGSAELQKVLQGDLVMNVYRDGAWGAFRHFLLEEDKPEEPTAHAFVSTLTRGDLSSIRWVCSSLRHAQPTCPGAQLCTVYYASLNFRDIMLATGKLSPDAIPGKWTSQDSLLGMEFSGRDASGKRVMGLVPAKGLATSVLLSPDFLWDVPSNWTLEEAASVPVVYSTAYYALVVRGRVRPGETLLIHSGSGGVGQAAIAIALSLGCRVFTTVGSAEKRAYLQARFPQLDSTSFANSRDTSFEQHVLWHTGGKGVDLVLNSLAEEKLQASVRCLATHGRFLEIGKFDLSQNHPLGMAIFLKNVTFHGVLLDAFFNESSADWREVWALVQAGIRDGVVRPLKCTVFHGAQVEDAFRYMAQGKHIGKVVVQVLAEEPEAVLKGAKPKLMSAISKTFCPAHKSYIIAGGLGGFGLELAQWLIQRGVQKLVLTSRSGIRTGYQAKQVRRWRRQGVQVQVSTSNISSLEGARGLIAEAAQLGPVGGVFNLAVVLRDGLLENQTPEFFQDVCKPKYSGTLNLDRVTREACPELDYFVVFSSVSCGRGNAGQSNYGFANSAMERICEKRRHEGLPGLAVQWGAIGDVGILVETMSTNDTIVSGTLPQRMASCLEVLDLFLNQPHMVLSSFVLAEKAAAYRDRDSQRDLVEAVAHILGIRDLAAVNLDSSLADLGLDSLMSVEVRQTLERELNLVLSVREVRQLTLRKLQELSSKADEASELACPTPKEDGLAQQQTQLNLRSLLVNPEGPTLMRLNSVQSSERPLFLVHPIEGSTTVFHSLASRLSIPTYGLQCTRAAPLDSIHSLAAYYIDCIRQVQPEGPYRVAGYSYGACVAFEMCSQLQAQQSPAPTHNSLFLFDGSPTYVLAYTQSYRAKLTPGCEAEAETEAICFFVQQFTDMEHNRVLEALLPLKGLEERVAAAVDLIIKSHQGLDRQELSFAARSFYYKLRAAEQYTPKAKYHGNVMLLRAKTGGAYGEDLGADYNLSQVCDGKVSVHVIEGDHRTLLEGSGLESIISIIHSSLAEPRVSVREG

The IC50 is the point on the concentration scale where inhibition reaches its midpoint. Broadly, the half-life is the time in which the quantity being followed falls by half. Higher therefore signals slow decline. With `Cc1sc2ncnc(NC3CCN(Cc4ccccc4)C3)c2c1C` (racemic) [HS-106, N-(1-benzylpyrrolidin-3-yI)-5,6-dimethylthieno[2,3-d]pyrimidin-4-amine], the half-inhibitory concentration (IC50) is 3710 nM at human FASN and 46 nM at human FASN (FIG. 2E, read-out: IC50, native human FASN (purified)). Moreover, the half-life in “in vivo” (T1/2 tumor tissue) came out at 65.71 ± 0.32 min; in the data set “in vivo” (ip, T1/2 kidney, 15 mg/kg IP), 9.9 ± 0.01 min; in the data set “in vivo” (ip, T1/2 liver, 15 mg/kg IP), 9.84 ± 0.09 min; in the data set “in vivo” (ip, T1/2 plasma, 15 mg/kg IP), 9.81 ± 0.02 min. Also, the acute toxicity result in data set [1] (160 pmol/kg IP days 1 and 3) is “toxic”; in data set [1] (80 mg/kg IP day 1 and 3) it was “acutely toxic”. Besides, the “acute toxicity, blood parameters” value in data set [1] (5 and 20 mg/kg IP day 1 and 3, blood day 4) is recorded as “did not affect white blood cell count, hemoglobin levels, kidney, or liver function”; in data set [1] (10 and 40 pmol/kg IP days 1 and 3, blood day 4) it was “well tolerated with no adverse effects on white blood cell counts, hemoglobin levels, kidney, or liver functions”. For the same compound, the weight change result in data set [1] (BIW IP injection, assessed weekly) is “dose not induce weight change”.
